Assay results published in patent US11459318B2, “Pesticidally active pyrrole derivatives” (Syngenta Participations AG, priority 2017, dated 2022).

Assays:
Assay type in all cases: in vivo
[1] = system: Euschistus heros (Neotropical Brown Stink Bug); assay: Euschistus heros (Neotropical Brown Stink Bug): Feeding/contact activity; settings: 120 h, application rate of 200 ppm, N2 nymphs on soybean leaves, assessed 5 days after infestation, read-out: control (mortality)
Procedure: Euschistus heros (Neotropical Brown Stink Bug): Feeding/contact activity Soybean leaves on agar in 24-well microtiter plates were sprayed with aqueous test solutions prepared from 10,000 ppm DMSO stock solutions. After drying the leaves were infested with N2 nymphs. The samples were assessed for mortality 5 days after infestation.

[2] = system: Myzus persicae (Green peach aphid); assay: Myzus persicae (Green peach aphid): Feeding/Contact activity; settings: foliar, 144 h, application rate of 200 ppm, aphid population of mixed ages on sunflower leaf discs, assessed 6 days after infestation, read-out: control (mortality)
Procedure: Myzus persicae (Green peach aphid): Feeding/Contact activity Sunflower leaf discs were placed onto agar in a 24-well microtiter plate and sprayed with aqueous test solutions prepared from 10,000 ppm DMSO stock solutions. After drying, the leaf discs were infested with an aphid population of mixed ages. The samples were assessed for mortality 6 days after infestation.

[3] = system: Spodoptera littoralis (Egyptian cotton leaf worm); assay: Spodoptera littoralis (Egyptian cotton leaf worm): Feeding/contact activity; settings: foliar, 72 h, application rate of 200 ppm, L1 larvae on cotton leaf discs, assessed 3 days after infestation, read-out: control (mortality)
Procedure: Spodoptera littoralis (Egyptian cotton leaf worm): Feeding/contact activity Cotton leaf discs were placed onto agar in 24-well microtiter plates and sprayed with aqueous test solutions prepared from 10,000 ppm DMSO stock solutions. After drying the leaf discs were infested with five L1 larvae. The samples were assessed for mortality 3 days after infestation.

[4] = system: Diabrotica balteata (Corn root worm); assay: Diabrotica balteata (Corn root worm), maize sprouts sprayed, L2 larvae mortality; settings: 96 h, application rate of 200 ppm, L2 larvae on maize sprouts, assessed 4 days after infestation, read-out: control (mortality)
Procedure: Diabrotica balteata (Corn root worm):
Maize sprouts placed onto an agar layer in 24-well microtiter plates were treated with aqueous test solutions prepared from 10,000 ppm DMSO stock solutions by spraying. After drying, the plates were infested with L2 larvae (6 to 10 per well). The samples were assessed for mortality 4 days after infestation.

[5] = system: Plutella xylostella (Diamond back moth); assay: Plutella xylostella (Diamond back moth): Feeding/contact activity; settings: 120 h, application rate of 200 ppm, L2 larvae on artificial diet, assessed 5 days after infestation, read-out: control (mortality)
Procedure: Plutella xylostella (Diamond back moth): Feeding/contact activity
24-well microtiter plates with artificial diet were treated with aqueous test solutions prepared from 10,000 ppm DMSO stock solutions by pipetting. After drying, the plates were infested with L2 larvae (10 to 15 per well). The samples were assessed for mortality 5 days after infestation.

[6] = system: Tetranychus urticae (Two-spotted spider mite); assay: Tetranychus urticae (Two-spotted spider mite): Feeding/contact activity; settings: foliar, 192 h, application rate of 200 ppm, mite population of mixed ages (mobile stages) on bean leaf discs, assessed 8 days after infestation, read-out: control (mortality)
Procedure: Tetranychus urticae (Two-spotted spider mite): Feeding/contact activity
Bean leaf discs on agar in 24-well microtiter plates were sprayed with aqueous test solutions prepared from 10,000 ppm DMSO stock solutions. After drying the leaf discs were infested with a mite population of mixed ages. The samples were assessed for mortality on mixed population (mobile stages) 8 days after infestation.

[7] = system: Thrips tabaci (Onion Thrips); assay: Thrips tabaci (Onion Thrips): Feeding/Contact activity; settings: foliar, 144 h, application rate of 200 ppm, thrips population of mixed ages on sunflower leaf discs, assessed 6 days after infestation, read-out: control (mortality)
Procedure: Thrips tabaci (Onion Thrips): Feeding/Contact activity
Sunflower leaf discs were placed on agar in 24-well microtiter plates and sprayed with aqueous test solutions prepared from 10,000 ppm DMSO stock solutions. After drying the leaf discs were infested with a thrips population of mixed ages. The samples were assessed for mortality 6 days after infestation.

Measured: mortality at 200 ppm

Cn1c(C(F)(C(F)(F)F)C(F)(F)F)cc(Br)c1-c1cc(-c2ccc(Cl)c(C(=O)NC3(C#N)CC3)c2)on1 [Compound 6, 5-[3-[3-bromo-1-methyl-5-[1,2,2,2-tetrafluoro-1-(trifluoromethyl)ethyl]pyrrol-2-yl]isoxazol-5-yl]-2-chloro-N-(1-cyanocyclopropyl)benzamide]
not listed: [7]
≥ 80%: all other assays above

Cn1c(C(F)(C(F)(F)F)C(F)(F)F)cc(C(F)(F)F)c1-n1cc(-c2ccc(Cl)c(C(=O)NC3(C#N)CC3)c2)cn1 [Compound 8, 2-chloro-N-(1-cyanocyclopropyl)-5-[1-[1-methyl-5-[1,2,2,2-tetrafluoro-1-(trifluoromethyl)ethyl]-3-(trifluoromethyl)pyrrol-2-yl]pyrazol-4-yl]benzamide]
not listed: [2] | [6]
≥ 80%: all other assays above

COCn1c(C(F)(C(F)(F)F)C(F)(F)F)cc(Br)c1-n1cc(-c2ccc(Cl)c(C(=O)NC3(C#N)CC3)c2)cn1 [Compound 14, 5-[1-[3-bromo-1-(methoxymethyl)-5-[1,2,2,2-tetrafluoro-1-(trifluoromethyl)ethyl]pyrrol-2-yl]pyrazol-4-yl]-2-chloro-N-(1-cyanocyclopropyl)benzamide]
not listed: [7]
≥ 80%: all other assays above

Cn1c(SC(F)(F)F)c(Br)c(Br)c1-n1cc(-c2ccc(Cl)c(C(=O)NC3(C#N)CC3)c2)cn1 [Compound 16, 2-chloro-N-(1-cyanocyclopropyl)-5-[1-[3,4-dibromo-1-methyl-5-(trifluoromethylsulfanyl)pyrrol-2-yl]pyrazol-4-yl]benzamide]
not listed: [1] | [2]
≥ 80%: all other assays above

CCN(C(=O)c1cc(-c2cnn(-c3c(Br)cc(C(F)(C(F)(F)F)C(F)(F)F)n3C)c2)ccc1Cl)C1CC1 [Compound 22, 5-[1-[3-bromo-1-methyl-5-[1,2,2,2-tetrafluoro-1-(trifluoromethyl)ethyl]pyrrol-2-yl]pyrazol-4-yl]-2-chloro-N-cyclopropyl-N-ethyl-benzamide]
not listed: [7]
≥ 80%: all other assays above

Cn1c(C(F)(C(F)(F)F)C(F)(F)F)cc(C(N)=S)c1-n1cc(-c2ccc(Cl)c(C(=O)NC3(C#N)CC3)c2)cn1 [Compound 23, 5-[1-[3-carbamothioyl-1-methyl-5-[1,2,2,2-tetrafluoro-1-(trifluoromethyl)ethyl]pyrrol-2-yl]pyrazol-4-yl]-2-chloro-N-(1-cyanocyclopropyl)benzamide]
not listed: [7]
≥ 80%: all other assays above

Cn1c(C(F)(c2cc(Cl)cc(Cl)c2)C(F)(F)F)cc(Cl)c1-n1cc(-c2ccc(Cl)c(C(=O)NC3(C#N)CC3)c2)cn1 (stereo not drawn) [Compound 30, 2-chloro-5-[1-[3-chloro-5-[1-(3,5-dichlorophenyl)-1,2,2,2-tetrafluoro-ethyl]-1-methyl-pyrrol-2-yl]pyrazol-4-yl]-N-(1-cyanocyclopropyl)benzamide]
not listed: [2] | [6]
≥ 80%: all other assays above

Cn1c(C(F)(F)C(F)(F)F)cc(Cl)c1-n1cc(-c2ccc(Cl)c(C(=O)NC3(C#N)CC3)c2)cn1 [Compound 33]
not listed: [7]
≥ 80%: all other assays above
